Laboratory results reported in patent publication US20230389548A1, “MIXTURES OF PYRIMIDINES AS HERBICIDAL COMPOSITIONS” (SYNGENTA CROP PROTECTION AG, priority 2020, published 2023).

Columns and labels:
Experiment in all cases: Post-emergence glasshouse spray test, visual percentage phytotoxicity after 13 days
Format in all cases: in vivo
[1] = tested on: Abutilon threophrasti (ABUTH); conditions: for ABUTH percentage phytotoxicity: B1
Summary of the method: (§1)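 Seeds were sown in sterilised soil and grown 8 days; plants were then sprayed at 500 l/Ha with diluted IF50-formulated compound, kept 13 days at 24/18 °C with 15 h light, and scored visually for percent damage against untreated controls, with 2–4 randomised replicates.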

[2] = tested on: Alopecurus myosuroides (ALOMY); conditions: for ALOMY percentage phytotoxicity: B1
Summary of the method: as §1

[3] = tested on: Amaranthus retroflexus (AMARE); conditions: for AMARE percentage phytotoxicity: B1
Summary of the method: as §1

[4] = tested on: Chenopodium album (CHEAL); conditions: for CHEAL percentage phytotoxicity: B1
Summary of the method: as §1

[5] = tested on: Digitaria sanguinalis (DIGSA); conditions: for DIGSA percentage phytotoxicity: B1
Summary of the method: as §1

[6] = tested on: Echinochloa crus-galli (ECHCG)
Summary of the method: as §1

[7] = tested on: Ipomoea hederacea (IPOHE); conditions: for IPOHE percentage phytotoxicity: B1
Summary of the method: as §1

Lolium perenne (LOLPE) = conditions: for LOLPE percentage phytotoxicity: B1
Summary of the method: as §1

Setaria faberi (SETFA) = conditions: for SETFA percentage phytotoxicity: B1
Summary of the method: as §1

Stellaria media (STEME) = conditions: for STEME percentage phytotoxicity: B1
Summary of the method: as §1

## FC(F)c1cc(-c2c(Cl)cccc2Oc2ncc(Cl)cn2)on1 [A-I]
[1]; 0.625 g/ha post-emergence
  ABUTH percentage phytotoxicity: 15%
[1]; 1.25 g/ha post-emergence
  ABUTH percentage phytotoxicity: 41%
[1]; 2.5 g/ha post-emergence
  ABUTH percentage phytotoxicity: 49%
[1]; 5 g/ha post-emergence
  ABUTH percentage phytotoxicity: 68%
[1]; 10 g/ha post-emergence
  ABUTH percentage phytotoxicity: 68%
[1]; B2.1.7, 1.25 g/ha post-emergence
  Observed phytotoxicity ABUTH: 8%
[1]; B2.1.7, 2.5 g/ha post-emergence
  Observed phytotoxicity ABUTH: 25%
[1]; B2.4.6, 0.625 g/ha post-emergence
  Observed phytotoxicity ABUTH: 15%
[2]; 0.625 g/ha post-emergence
  ALOMY percentage phytotoxicity: 5%
[2]; 1.25 g/ha post-emergence
  ALOMY percentage phytotoxicity: 11%
[2]; 2.5 g/ha post-emergence
  ALOMY percentage phytotoxicity: 10%
[2]; 5 g/ha post-emergence
  ALOMY percentage phytotoxicity: 43%
[2]; 10 g/ha post-emergence
  ALOMY percentage phytotoxicity: 41%
[2]; B2.2.5, 5 g/ha post-emergence
  Observed phytotoxicity ALOMY: 14%
[2]; B2.3.5, 1.25 g/ha post-emergence
  Observed phytotoxicity ALOMY: 1%
[2]; B2.4.4, 10 g/ha post-emergence
  Observed phytotoxicity ALOMY: 41%
[3]; 0.625 g/ha post-emergence
  AMARE percentage phytotoxicity: 60%
[3]; 1.25 g/ha post-emergence
  AMARE percentage phytotoxicity: 70%
[3]; 2.5 g/ha post-emergence
  AMARE percentage phytotoxicity: 98%
[3]; 5 g/ha post-emergence
  AMARE percentage phytotoxicity: 98%
[3]; 10 g/ha post-emergence
  AMARE percentage phytotoxicity: 100%
[3]; B2.1.5, 1.25 g/ha post-emergence
  Observed phytotoxicity AMARE: 55%
[3]; B2.2.6, 0.625 g/ha post-emergence
  Observed phytotoxicity AMARE: 51%
[3]; B2.2.6, 1.25 g/ha post-emergence
  Observed phytotoxicity AMARE: 76%
[3]; B2.4.8, 1.25 g/ha post-emergence
  Observed phytotoxicity AMARE: 70%
[4]; 0.625 g/ha post-emergence
  CHEAL percentage phytotoxicity: 48%
[4]; 1.25 g/ha post-emergence
  CHEAL percentage phytotoxicity: 53%
[4]; 2.5 g/ha post-emergence
  CHEAL percentage phytotoxicity: 79%
[4]; 5 g/ha post-emergence
  CHEAL percentage phytotoxicity: 76%
[4]; 10 g/ha post-emergence
  CHEAL percentage phytotoxicity: 78%
[4]; B2.1.6, 1.25 g/ha post-emergence
  Observed phytotoxicity CHEAL: 45%
[4]; B2.4.7, 1.25 g/ha post-emergence
  Observed phytotoxicity CHEAL: 53%
[5]; 0.625 g/ha post-emergence
  DIGSA percentage phytotoxicity: 6%
[5]; 1.25 g/ha post-emergence
  DIGSA percentage phytotoxicity: 25%
[5]; 2.5 g/ha post-emergence
  DIGSA percentage phytotoxicity: 34%
[5]; 5 g/ha post-emergence
  DIGSA percentage phytotoxicity: 63%
[5]; 10 g/ha post-emergence
  DIGSA percentage phytotoxicity: 78%
[5]; B2.2.3, 5 g/ha post-emergence
  Observed phytotoxicity DIGSA: 48%
[5]; B2.3.3, 0.625 g/ha post-emergence
  Observed phytotoxicity DIGSA: 3%
[5]; B2.3.3, 1.25 g/ha post-emergence
  Observed phytotoxicity DIGSA: 9%
[5]; B2.4.2, 2.5 g/ha post-emergence
  Observed phytotoxicity DIGSA: 34%
[5]; B2.4.2, 5 g/ha post-emergence
  Observed phytotoxicity DIGSA: 63%
[5]; B2.4.2, 10 g/ha post-emergence
  Observed phytotoxicity DIGSA: 78%
[5]; B2.5.1, 2.5 g/ha post-emergence
  Observed phytotoxicity DIGSA: 34%
[5]; B2.6.2, 0.625 g/ha post-emergence
  Observed phytotoxicity DIGSA: 6%
[5]; B2.6.2, 2.5 g/ha post-emergence
  Observed phytotoxicity DIGSA: 34%
[5]; B2.6.2, 10 g/ha post-emergence
  Observed phytotoxicity DIGSA: 78%
[6]; B2.1.2, 0.625 g/ha post-emergence
  Observed phytotoxicity ECHCG: 8%
[6]; B2.1.2, 5 g/ha post-emergence
  Observed phytotoxicity ECHCG: 20%
[6]; B2.2.2, 0.625 g/ha post-emergence
  Observed phytotoxicity ECHCG: 0%
[6]; B2.2.2, 1.25 g/ha post-emergence
  Observed phytotoxicity ECHCG: 34%
[6]; B2.2.2, 5 g/ha post-emergence
  Observed phytotoxicity ECHCG: 10%
[6]; B2.3.2, 0.625 g/ha post-emergence
  Observed phytotoxicity ECHCG: 0%
[6]; B2.3.2, 1.25 g/ha post-emergence
  Observed phytotoxicity ECHCG: 4%
[6]; B2.3.2, 5 g/ha post-emergence
  Observed phytotoxicity ECHCG: 10%
[7]; 0.625 g/ha post-emergence
  IPOHE percentage phytotoxicity: 32%
[7]; 1.25 g/ha post-emergence
  IPOHE percentage phytotoxicity: 50%
[7]; 2.5 g/ha post-emergence
  IPOHE percentage phytotoxicity: 80%
[7]; 5 g/ha post-emergence
  IPOHE percentage phytotoxicity: 79%
[7]; 10 g/ha post-emergence
  IPOHE percentage phytotoxicity: 60%
[7]; B2.3.6, 0.625 g/ha post-emergence
  Observed phytotoxicity IPOHE: 24%
[7]; B2.4.5, 10 g/ha post-emergence
  Observed phytotoxicity IPOHE: 60%
[7]; B2.6.4, 10 g/ha post-emergence
  Observed phytotoxicity IPOHE: 60%
Lolium perenne (LOLPE); 0.625 g/ha post-emergence
  LOLPE percentage phytotoxicity: 4%
Lolium perenne (LOLPE); 1.25 g/ha post-emergence
  LOLPE percentage phytotoxicity: 5%
Lolium perenne (LOLPE); 2.5 g/ha post-emergence
  LOLPE percentage phytotoxicity: 8%
Lolium perenne (LOLPE); 5 g/ha post-emergence
  LOLPE percentage phytotoxicity: 43%
Lolium perenne (LOLPE); 10 g/ha post-emergence
  LOLPE percentage phytotoxicity: 30%
Lolium perenne (LOLPE); B2.1.1, 0.625 g/ha post-emergence
  Observed phytotoxicity LOLPE: 0%
Lolium perenne (LOLPE); B2.1.1, 1.25 g/ha post-emergence
  Observed phytotoxicity LOLPE: 0%
Lolium perenne (LOLPE); B2.2.4, 1.25 g/ha post-emergence
  Observed phytotoxicity LOLPE: 0%
Lolium perenne (LOLPE); B2.2.4, 2.5 g/ha post-emergence
  Observed phytotoxicity LOLPE: 0%
Lolium perenne (LOLPE); B2.2.4, 5 g/ha post-emergence
  Observed phytotoxicity LOLPE: 14%
Lolium perenne (LOLPE); B2.3.4, 1.25 g/ha post-emergence
  Observed phytotoxicity LOLPE: 0%
Lolium perenne (LOLPE); B2.3.4, 2.5 g/ha post-emergence
  Observed phytotoxicity LOLPE: 0%
Lolium perenne (LOLPE); B2.4.3, 10 g/ha post-emergence
  Observed phytotoxicity LOLPE: 30%
Lolium perenne (LOLPE); B2.5.2, 5 g/ha post-emergence
  Observed phytotoxicity LOLPE: 21%
Lolium perenne (LOLPE); B2.5.2, 10 g/ha post-emergence
  Observed phytotoxicity LOLPE: 30%
Lolium perenne (LOLPE); B2.6.3, 10 g/ha post-emergence
  Observed phytotoxicity LOLPE: 30%
Setaria faberi (SETFA); 0.625 g/ha post-emergence
  SETFA percentage phytotoxicity: 7%
Setaria faberi (SETFA); 1.25 g/ha post-emergence
  SETFA percentage phytotoxicity: 13%
Setaria faberi (SETFA); 2.5 g/ha post-emergence
  SETFA percentage phytotoxicity: 29%
Setaria faberi (SETFA); 5 g/ha post-emergence
  SETFA percentage phytotoxicity: 53%
Setaria faberi (SETFA); 10 g/ha post-emergence
  SETFA percentage phytotoxicity: 65%
Setaria faberi (SETFA); B2.1.3, 5 g/ha post-emergence
  Observed phytotoxicity SETFA: 40%
Setaria faberi (SETFA); B2.2.1, 1.25 g/ha post-emergence
  Observed phytotoxicity SETFA: 8%
Setaria faberi (SETFA); B2.2.1, 2.5 g/ha post-emergence
  Observed phytotoxicity SETFA: 14%
Setaria faberi (SETFA); B2.2.1, 5 g/ha post-emergence
  Observed phytotoxicity SETFA: 51%
Setaria faberi (SETFA); B2.3.1, 0.625 g/ha post-emergence
  Observed phytotoxicity SETFA: 3%
Setaria faberi (SETFA); B2.3.1, 1.25 g/ha post-emergence
  Observed phytotoxicity SETFA: 8%
Setaria faberi (SETFA); B2.3.1, 2.5 g/ha post-emergence
  Observed phytotoxicity SETFA: 14%
Setaria faberi (SETFA); B2.4.1, 2.5 g/ha post-emergence
  Observed phytotoxicity SETFA: 29%
Setaria faberi (SETFA); B2.6.1, 0.625 g/ha post-emergence
  Observed phytotoxicity SETFA: 7%
Setaria faberi (SETFA); B2.6.1, 2.5 g/ha post-emergence
  Observed phytotoxicity SETFA: 29%
Stellaria media (STEME); 0.625 g/ha post-emergence
  STEME percentage phytotoxicity: 44%
Stellaria media (STEME); 1.25 g/ha post-emergence
  STEME percentage phytotoxicity: 60%
Stellaria media (STEME); 2.5 g/ha post-emergence
  STEME percentage phytotoxicity: 88%
Stellaria media (STEME); 5 g/ha post-emergence
  STEME percentage phytotoxicity: 99%
Stellaria media (STEME); 10 g/ha post-emergence
  STEME percentage phytotoxicity: 98%
Stellaria media (STEME); B2.1.4, 1.25 g/ha post-emergence
  Observed phytotoxicity STEME: 40%
Stellaria media (STEME); B2.3.7, 0.625 g/ha post-emergence
  Observed phytotoxicity STEME: 29%
Stellaria media (STEME); B2.6.5, 0.625 g/ha post-emergence
  Observed phytotoxicity STEME: 44%
